The target of this assay is ROCK2 (Homo sapiens, UniProt O75116). The assay is described as follows: ROCK kinase inhibition assay, FITC peptide substrate, LABCHIP 3000 readout. Format: biochemical. The settings on record: 5 μM ATP, 1.5 μM peptide substrate. The protocol:
Compounds were dissolved in DMSO so that the final concentration of DMSO was <2%, and the reaction was initiated with Rho kinase variants. After incubation, the reaction was terminated by the addition of EDTA and the phosphorylated and non-phosphorylated peptides separated using a LABCHIP® 3000 Reader (Caliper Life Sciences). […] Compounds were tested in dose-response format, and the inhibition of kinase activity was calculated at each concentration of compound.

pIC50: −log10 of the molar value.

ROCK2, sequence (O75116 whole entry, species assumed): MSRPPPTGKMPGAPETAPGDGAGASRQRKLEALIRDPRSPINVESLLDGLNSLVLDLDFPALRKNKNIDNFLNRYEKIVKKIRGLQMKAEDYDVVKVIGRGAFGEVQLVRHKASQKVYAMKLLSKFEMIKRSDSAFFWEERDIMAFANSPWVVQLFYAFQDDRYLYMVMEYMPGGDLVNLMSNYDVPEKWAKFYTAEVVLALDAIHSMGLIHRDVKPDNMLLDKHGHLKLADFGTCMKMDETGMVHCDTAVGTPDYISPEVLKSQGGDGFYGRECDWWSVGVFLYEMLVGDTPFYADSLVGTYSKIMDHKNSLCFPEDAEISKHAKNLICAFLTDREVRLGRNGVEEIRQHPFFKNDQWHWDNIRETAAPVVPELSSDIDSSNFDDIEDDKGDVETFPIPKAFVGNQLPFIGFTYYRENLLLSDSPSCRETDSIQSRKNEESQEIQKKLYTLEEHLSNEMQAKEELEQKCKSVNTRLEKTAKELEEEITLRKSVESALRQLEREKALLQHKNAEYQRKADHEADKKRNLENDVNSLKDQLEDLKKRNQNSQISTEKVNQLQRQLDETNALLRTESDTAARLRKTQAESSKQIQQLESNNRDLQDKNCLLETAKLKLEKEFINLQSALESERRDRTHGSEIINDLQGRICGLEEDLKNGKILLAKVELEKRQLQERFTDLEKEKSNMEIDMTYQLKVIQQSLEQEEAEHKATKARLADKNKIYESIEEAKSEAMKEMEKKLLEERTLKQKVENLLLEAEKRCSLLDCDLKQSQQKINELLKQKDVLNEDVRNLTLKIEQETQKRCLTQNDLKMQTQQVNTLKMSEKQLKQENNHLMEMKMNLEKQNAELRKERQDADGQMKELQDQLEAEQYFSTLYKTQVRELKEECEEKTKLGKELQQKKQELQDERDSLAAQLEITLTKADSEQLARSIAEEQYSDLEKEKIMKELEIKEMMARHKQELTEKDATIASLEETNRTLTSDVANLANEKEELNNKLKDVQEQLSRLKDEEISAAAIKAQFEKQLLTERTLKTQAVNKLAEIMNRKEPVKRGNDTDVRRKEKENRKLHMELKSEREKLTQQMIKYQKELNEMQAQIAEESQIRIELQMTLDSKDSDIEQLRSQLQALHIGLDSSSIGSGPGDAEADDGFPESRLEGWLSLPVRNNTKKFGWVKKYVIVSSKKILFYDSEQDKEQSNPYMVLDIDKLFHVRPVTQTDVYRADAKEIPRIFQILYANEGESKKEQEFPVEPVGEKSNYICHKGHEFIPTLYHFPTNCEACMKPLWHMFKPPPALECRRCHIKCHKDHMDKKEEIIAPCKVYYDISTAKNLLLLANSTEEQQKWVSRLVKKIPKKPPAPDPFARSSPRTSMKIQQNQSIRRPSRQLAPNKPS

As to `COc1cc(N2CCC3(CCN(C(=O)c4cc(C5CC5)on4)CC3)C2=O)ccc1-c1cn[nH]c1` [Example 100, 8-(5-cyclopropyl-1,2-oxazole-3-carbonyl)-2-[3-methoxy-4-(1H-pyrazol-4-yl)phenyl]-2,8-diazaspiro[4.5]decan-1-one], the pIC50 (commonly −log10 of the IC50, conventionally taken in molar units) was 8.22. For `COc1cc(N2CCC3(CCN(C(=O)c4ccc(C(=O)NCC5CC5)cc4)CC3)C2=O)ccc1-c1cn[nH]c1` [Example 26, N-(cyclopropylmethyl)-4-{2-[3-methoxy-4-(1H-pyrazol-4-yl)phenyl]-1-oxo-2,8-diazaspiro[4.5]decane-8-carbonyl}benzamide] the value was 6.92. The same measure for `COc1cc(N2CCC3(CCN(C(=O)c4ccc(Cl)cc4F)CC3)C2=O)ccc1-c1cn[nH]c1` [Example 75, 8-(4-chloro-2-fluorobenzoyl)-2-[3-methoxy-4-(1H-pyrazol-4-yl)phenyl]-2,8-diazaspiro[4.5]decan-1-one]: 7.30. The same measure for `COc1cc(N2CCC3(CCN(C(=O)c4ccc(C(F)(F)F)cn4)CC3)C2=O)ccc1-c1cn[nH]c1` [Example 98, 2-[3-methoxy-4-(1H-pyrazol-4-yl)phenyl]-8-[5-(trifluoromethyl)pyridine-2-carbonyl]-2,8-diazaspiro[4.5]decan-1-one]: 6.59; for `CN1CCN(c2ccc(C(=O)N3CCC4(CC3)CCN(c3cccc(-c5ccc6[nH]ncc6c5)c3)C4=O)cc2)CC1` [Example 51, 2-[3-(1H-indazol-5-yl)phenyl]-8-[4-(4-methylpiperazin-1-yl)benzoyl]-2,8-diazaspiro[4.5]decan-1-one]: 7.85; for `COc1ccc(C(=O)N2CCC3(CC2)CCN(c2ccc(-c4cn[nH]c4)c(OC)c2)C3=O)cc1F` [Example 14, 8-(3-fluoro-4-methoxybenzoyl)-2-[3-methoxy-4-(1H-pyrazol-4-yl)phenyl]-2,8-diazaspiro[4.5]decan-1-one]: 8.10.

Take `COc1cc(N2CCC3(CCN(C(=O)c4ccc(Cl)cn4)CC3)C2=O)ccc1-c1cn[nH]c1` [Example 123, 8-(5-chloropyridine-2-carbonyl)-2-[3-methoxy-4-(1H-pyrazol-4-yl)phenyl]-2,8-diazaspiro[4.5]decan-1-one]: the negative logarithm of the IC50 (pIC50) is 7.19.

`COc1cc(N2CCC3(CCN(C(=O)c4ccc(N5CCN(CCC(F)(F)F)CC5)cc4)CC3)C2=O)ccc1-c1cn[nH]c1` [Example 240, 2-[3-methoxy-4-(1H-pyrazol-4-yl)phenyl]-8-{4-[4-(3,3,3-trifluoropropyl)piperazin-1-yl]benzoyl}-2,8-diazaspiro[4.5]decan-1-one] had a pIC50 of 9.00. This pIC50 is 1.81 log units higher than that of the molecule before. For the molecule `COc1cc(N2CCC3(CCN(C(=O)c4ccc(CS(C)(=O)=O)cc4)CC3)C2=O)ccc1-c1cn[nH]c1` [Example 169, 8-[4-(methanesulfonylmethyl)benzoyl]-2-[3-methoxy-4-(1H-pyrazol-4-yl)phenyl]-2,8-diazaspiro[4.5]decan-1-one], the pIC50 is 7.89. For `COc1cc(N2CCC3(CCN(C(=O)c4cc[n+]([O-])cc4)CC3)C2=O)ccc1-c1cn[nH]c1` [Example 96, 4-{2-[3-methoxy-4-(1H-pyrazol-4-yl)phenyl]-1-oxo-2,8-diazaspiro[4.5]decane-8-carbonyl}pyridin-1-ium-1-olate] the value was 5.96; for `COc1cc(N2CCC3(CCN(C(=O)c4cc(C(C)C)n5ncnc(O)c45)CC3)C2=O)ccc1-c1cn[nH]c1` [Example 200, 8-[4-hydroxy-7-(propan-2-yl)pyrrolo[2,1-f][1,2,4]triazine-5-carbonyl]-2-[3-methoxy-4-(1H-pyrazol-4-yl)phenyl]-2,8-diazaspiro[4.5]decan-1-one], 8.68. For `COc1cc(N2CCC3(CCN(C(=O)c4ccc(-c5nnco5)cc4)CC3)C2=O)ccc1-c1cn[nH]c1` [Example 163, 2-[3-methoxy-4-(1H-pyrazol-4-yl)phenyl]-8-[4-(1,3,4-oxadiazol-2-yl)benzoyl]-2,8-diazaspiro[4.5]decan-1-one] the value was 7.80; for `COc1cc(N2CCC3(CCN(C(=O)c4ccc(N5CCN(Cc6nc7ccccc7s6)CC5)cc4)CC3)C2=O)ccc1-c1cn[nH]c1` [Example 229, 8-(4-{4-[(1,3-benzothiazol-2-yl)methyl]piperazin-1-yl}benzoyl)-2-[3-methoxy-4-(1H-pyrazol-4-yl)phenyl]-2,8-diazaspiro[4.5]decan-1-one], 8.72. The molecule `COc1cc(N2CCC3(CCN(C(=O)c4ccc(N5CCCOC5=O)cc4)CC3)C2=O)ccc1-c1cn[nH]c1` [Example 137, 2-[3-methoxy-4-(1H-pyrazol-4-yl)phenyl]-8-[4-(2-oxo-1,3-oxazinan-3-yl)benzoyl]-2,8-diazaspiro[4.5]decan-1-one] had a negative logarithm of the IC50 (pIC50) of 8.15.

As to `COc1cc(N2CCC3(CCN(C(=O)c4ccc(C)s4)CC3)C2=O)ccc1-c1cn[nH]c1` [Example 66, 2-[3-methoxy-4-(1H-pyrazol-4-yl)phenyl]-8-(5-methylthiophene-2-carbonyl)-2,8-diazaspiro[4.5]decan-1-one], the pIC50 was 6.43.

The molecule `COc1cc(N2CCC3(CCN(C(=O)c4ccc(N5CCCNC5=O)cc4)CC3)C2=O)ccc1-c1cn[nH]c1` [Example 126, 2-[3-methoxy-4-(1H-pyrazol-4-yl)phenyl]-8-[4-(2-oxo-1,3-diazinan-1-yl)benzoyl]-2,8-diazaspiro[4.5]decan-1-one] had a negative logarithm of the IC50 (pIC50) of 8.11. For `CN1CCN(c2ccc(C(=O)N3CCC4(CC3)CCN(c3ccc(-c5ccc6nn[nH]c6c5)cc3)C4=O)cc2)CC1` [Example 38, 2-[4-(1H-1,2,3-benzotriazol-6-yl)phenyl]-8-[4-(4-methylpiperazin-1-yl)benzoyl]-2,8-diazaspiro[4.5]decan-1-one] the value was 6.94. `Cn1nc(C(=O)N2CCC3(CC2)CCN(c2ccc(-c4cn[nH]c4)cc2)C3=O)c2ccccc21` [Example 6, 8-(1-methyl-1H-indazole-3-carbonyl)-2-[4-(1H-pyrazol-4-yl)phenyl]-2,8-diazaspiro[4.5]decan-1-one] showed a negative-log IC50 (pIC50) of 6.84. For `COc1cc(N2CCC3(CCN(C(=O)c4cc5n(n4)CCNC5=O)CC3)C2=O)ccc1-c1cn[nH]c1` [Example 114, 2-[3-methoxy-4-(1H-pyrazol-4-yl)phenyl]-8-{4-oxo-4H,5H,6H,7H-pyrazolo[1,5-a]pyrazine-2-carbonyl}-2,8-diazaspiro[4.5]decan-1-one] the value was 8.22; for `COc1cc(N2CCC3(CCN(C(=O)c4ccc5c(c4)CC(=O)N5)CC3)C2=O)ccc1-c1cn[nH]c1` [Example 177, 2-[3-methoxy-4-(1H-pyrazol-4-yl)phenyl]-8-(2-oxo-2,3-dihydro-1H-indole-5-carbonyl)-2,8-diazaspiro[4.5]decan-1-one], 7.11; for `COc1cc(N2CCC3(CCN(C(=O)c4ccc5ccn(C)c5c4)CC3)C2=O)ccc1-c1cn[nH]c1` [Example 155, 2-[3-methoxy-4-(1H-pyrazol-4-yl)phenyl]-8-(1-methyl-1H-indole-6-carbonyl)-2,8-diazaspiro[4.5]decan-1-one], 7.40. The same measure for `COc1cc(N2CCC3(CCN(C(=O)c4ccc(C(N)=O)cc4)CC3)C2=O)ccc1-c1cn[nH]c1` [Example 23, 4-{2-[3-methoxy-4-(1H-pyrazol-4-yl)phenyl]-1-oxo-2,8-diazaspiro[4.5]decane-8-carbonyl}benzamide]: 7.44. The same measure for `COc1cc(N2CCC3(CCN(C(=O)c4ccc(Cl)cc4)CC3)C2=O)ccc1-c1cn[nH]c1` [Example 18, 8-(4-Chlorobenzoyl)-2-[3-methoxy-4-(1H-pyrazol-4-yl)phenyl]-2,8-diazaspiro[4.5]decan-1-one]: 7.21; for `COc1cc(N2CCC3(CCN(C(=O)Nc4ccc(N(C)C)cc4)CC3)C2=O)ccc1-c1cn[nH]c1` [Example 215, N-[4-(dimethylamino)phenyl]-2-[3-methoxy-4-(1H-pyrazol-4-yl)phenyl]-1-oxo-2,8-diazaspiro[4.5]decane-8-carboxamide]: 6.10.

`COc1cc(N2CCC3(CCN(C(=O)c4ccc(F)c(C)c4)CC3)C2=O)ccc1-c1cn[nH]c1` [Example 103, 8-(4-fluoro-3-methylbenzoyl)-2-[3-methoxy-4-(1H-pyrazol-4-yl)phenyl]-2,8-diazaspiro[4.5]decan-1-one] gave a pIC50 of 7.02. Take `COc1cc(N2CCC3(CCN(C(=O)c4cc5ccccc5s4)CC3)C2=O)ccc1-c1cn[nH]c1` [Example 76, 8-(1-benzothiphene-2-carbonyl)-2-[3-methoxy-4-(1H-pyrazol-4-yl)phenyl]-2,8-diazaspiro[4.5]decan-1-one]: the negative-log IC50 (pIC50) was 7.57. For `COc1cc(N2CCC3(CCN(C(=O)c4ccc(S(N)(=O)=O)cc4)CC3)C2=O)ccc1-c1cn[nH]c1` [Example 55, 4-{2-[3-methoxy-4-(1H-pyrazol-4-yl)phenyl]-1-oxo-2,8-diazaspiro[4.5]decane-8-carbonyl}benzene-1-sulfonamide] the value was 7.02. For `COc1cc(N2CCC3(CCN(C(=O)c4ccno4)CC3)C2=O)ccc1-c1cn[nH]c1` [Example 97, 2-[3-methoxy-4-(1H-pyrazol-4-yl)phenyl]-8-(1,2-oxazole-5-carbonyl)-2,8-diazaspiro[4.5]decan-1-one] the value was 6.37; for `CN1CCN(c2ccc(C(=O)N3CCC4(CC3)CCN(c3cccc(-c5ccc6cn[nH]c6c5)c3)C4=O)cc2)CC1` [Example 49, 2-[3-(1H-indazol-6-yl)phenyl]-8-[4-(4-methylpiperazin-1-yl)benzoyl]-2,8-diazaspiro[4.5]decan-1-one], 8.17.

As to `COc1cc(N2CCC3(CCN(C(=O)c4ccc5c(c4)nc(C)n5C)CC3)C2=O)ccc1-c1cn[nH]c1` [Example 179, 8-(1,2-dimethyl-1H-1,3-benzodiazole-5-carbonyl)-2-[3-methoxy-4-(1H-pyrazol-4-yl)phenyl]-2,8-diazaspiro[4.5]decan-1-one], the negative-log IC50 (pIC50) was 8.64. This pIC50 lies 0.47 log units higher than the previous one.

Values taken from patent US11192891B2, “Diazaspiro ROCK inhibitors” (BRISTOL-MYERS SQUIBB COMPANY, priority 2017, dated 2021).
